Earlier results as cited in publication PMC7318425 (Bioorganic & medicinal chemistry letters, 2019).

Tested on: off-target kinases
Conditions: KinomeScan, compared with ibrutinib

Nc1ncnc2c1c(-c1ccc(Oc3ccccc3)cc1)nn2C1CCN(CCOCCOCC(=O)Nc2ccc3c(c2)C(=O)N(C2CCC(=O)NC2=O)C3=O)CC1 (stereo not shown) [MT802]
off-target kinase binding: binds fewer off-target kinases than ibrutinib
